One series deals with humans. To be noted: cited from earlier work.
In series [1] the test system is CHO–K1 cells. In words: OCR in the absence or presence of oligomycin (Supplementary Fig. 6). Type of series: cell-based, Cricetulus griseus. To be noted: 1 μM oligomycin, uncoupler at lowest concentration yielding MaxOCR. How it is done:
ATP synthase is the major conduit through which protons re-enter the mitochondrial matrix. Thus, we sought to investigate whether the selected uncouplers could stimulate oxygen consumption in the presence of the ATP synthase inhibitor oligomycin.
Supplementary Figure 6. […] At ~24 minutes, 1 μM of oligomycin or vehicle was injected, followed by the injection of the indicated uncoupler or vehicle at ~44 minutes, and 0.5 μM Rotenone / Antimycin A at ~88 minutes.

A further series has as its system Swiss mice. Further details: method as in PMID 18505478. To be noted: ∼30–105 μg/kg/day in drinking water; cited from earlier work.
Series [2] deals with CHO–K1 cells. In words: Seahorse XF-96 OCR dose response of 15 uncouplers (Figure 2). To be noted: for EC50: mean OCR (% basal) over first 24 min post injection, ± standard error, four-parameter fit. It is filed as cell-based, Cricetulus griseus.
Description: Stock solutions of the uncouplers and/or Rotenone/Antimycin A were diluted in Seahorse media to give the final concentration indicated in Figure 1, Figure 2, Figure 3 with 0.4% (v/v) DMSO in wells.
The subject of the next series is db/db mice. The series is described as follows: Four-week treatment by admixture in chow, metabolic phenotyping. To be noted: 4 weeks.
In series [3] the test system is Arabidopsis thaliana cells. Further details: method as in PMID 22006339. To be noted: cited from earlier work.
Series [4] in a line: Drug exposure / pharmacokinetics after oral gavage. To be noted: male, C57BL/6J, mouse, plasma, 10 mg/kg.
Description: Standards were prepared by spiking known concentrations (0.1, 1, 10, 100 and 1000 ng) of the uncoupler into whole blood prior to extraction. Plasma was obtained by centrifugation at 2000×g for 10 min at 4 °C. Seven microlitres (7 μL) of plasma was precipitated in 100 μL of 90% (v/v) acetonitrile and 10% (v/v) methanol. The resulting solution was vortexed for 5 s and then centrifuged at 21,130×g for 10 min at 4 °C. The supernatant was collected in auto-sampler vials for mass spectrometry.
Plasma concentration of mitochondrial uncouplers at indicated timepoints was determined by LC-MS/MS. Error bars show SEM, n = 3 per mitochondrial uncoupler.
Another series relates to rat hepatocytes. The arrangement: method as in PMID 15037196, PMID 8726330. To be noted: cited from earlier work.

Like-named read-outs stand apart in the source and are kept apart here. Some results are limits rather than exact numbers.

Description for db/db mice: Body weight and glucose tolerance of male db/+ and db/db mice was assessed at 8–9 weeks of age to obtain baseline measurements. Db/+ were used as lean metabolically healthy controls and given ad libitum access to chow diet. Db/db mice were stratified into 12 groups using R (V4.4.0).
Mice were on treatment for a period of four weeks, during which body weight and food intake were measured daily. […] To counter this, food traps were placed beneath hoppers and leftover food in both the traps and hoppers was weighed daily. HbA1c was measured weekly. At the end of the treatment period, a glucose tolerance test was conducted, with fed and fasted bloods collected. At termination, blood was collected via cardiac puncture under isoflurane anaesthesia. Mice were euthanised by cervical dislocation and harvested tissues were flash-frozen in liquid nitrogen and stored at −80 °C.
Mice were fasted for 6 h and then received intraperitoneal injections of 20% (w/v) dextrose at a dose of 1 g/kg lean body mass. Blood glucose (BG) was measured at the time of fasting (random-fed BG) and then again prior to the commencement of the GTT following the 6-hour daytime fast (fasted BG). […] The rate of glucose clearance was measured using the trapezoidal method for calculation of area under the curve.
HbA1c was measured once weekly using an A1cNow + Portable HbA1c Test Kit. […] HbA1c was measured in the random-fed state.
A glucose tolerance test was conducted at the end of the treatment period, with random fed and 6-hour fasted bloods collected. Blood was collected in heparin tubes and kept on ice prior to centrifugation at 2000×g for 10 min at 4 °C to extract plasma. Plasma insulin concentration was determined using the Crystal Chem Ultra-Sensitive Mouse Insulin ELISA kit, according to manufacturers' instructions for the high range (1–64 ng/mL) assay.

In the case of `O=[N+]([O-])c1ccc(O)c([N+](=O)[O-])c1` [DNP, 2,4-Dinitrophenol], in the series with humans, the “Body weight lost per week” value is 1.5 kg and the Weight loss is recorded as at most 1.5 kg/week. In addition, the “Increase in metabolic rate” value with humans (for every 100 mg ingested) was 11%. Moreover, in the series on CHO–K1 cells [1], the “Effect of oligomycin on uncoupler-stimulated OCR” value (from here on “Effect of oligomycin”) is “largely unaffected by the presence of oligomycin”. In the series on Swiss mice, the Lifespan extension is reported as 7%. Besides, in the series on CHO–K1 cells [2] (CHO–K1, Figure 2), the “MaxOCR lower than that seen with BAM15” value is about 27%. The half-maximal effective concentration (EC50) in the series on CHO–K1 cells [2] (Cricetulus griseus, CHO-K1, 0.4 h, read-out: EC50 (increase of OCR), CHO–K1) was 17000 ± 1180 nM. The EC50 in the series with CHO–K1 cells [2] (read-out: EC50 (increase of OCR), CHO–K1) was 17000 nM.
For `O=[N+]([O-])c1ccc(NS(=O)(=O)c2ccc(Br)s2)cc1` [ES9, Endosidin 9], the “Gastrocnemius weight vs control” value with db/db mice (0.015% in chow) is listed as “significantly larger gastrocnemius”. In the series on db/db mice (0.03% in chow), the “Gastrocnemius weight vs control” value was “significantly larger gastrocnemius”, the “Increase of total liver cholesterol content vs db/db control” value is reported as about 1.7 fold and the “Post-treatment GTT AUC lower than control group” value is listed as about 35%. In the series with db/db mice (0.15% BAM15, 0.02% OPC-163493, 0.015% and 0.03% ES9, NTZ and NEN both doses), the “Body weight / weight gain vs db/db controls” value is “non-significant trend for increased weight gain”. In addition, the “GTT ΔAUC (post minus pre-treatment)” value in the series with db/db mice (0.15% and 0.2% BAM15, printed 0.3% ES9) is “statistically significant protection from worsening glucose tolerance”. In the series on db/db mice (NEN both doses, 0.01% OPC, 0.015% ES9, 0.2% NTZ), the “Blood glucose, HbA1c, glucose tolerance vs control” value is on record as “did not have significantly lower random-fed or 6-hour fasted blood glucose”. In addition, the “HbA1c” value in the series with db/db mice (both doses of BAM15, printed 0.3% ES9, 0.4% NTZ) is “lowered HbA1c levels”. In the series with db/db mice (either dose of BAM15, high dose ES9, high dose NTZ), the “Fasting and random fed blood glucose” value was “partial efficacy”. Besides, in the series on db/db mice (high dose ES9 (0.03%)), the “Increase of liver triglyceride concentration vs db/db controls” value is given as about 2.7 fold and the “Increase of total liver triglyceride content vs db/db controls” value is reported as about 3.4 fold. In addition, the “Liver triglyceride concentration vs db/db controls” value in the series on db/db mice (lower dose ES9 (0.015%)) is given as “significantly increased liver triglyceride concentration”. Further, the “Increase in liver wet weight vs db/db control” value in the series on db/db mice (printed 0.3% ES9 in chow) is given as about 25%. Moreover, the “Effect of oligomycin” value in the series on CHO–K1 cells [1] is “largely unaffected by the presence of oligomycin”. The “Concentration increasing respiration (as low as)” value in series [3] was “Endosidin 9 (ES9) • ES9 has not been tested in mouse models of metabolic disease. It was identified in a chemical library screen for inhibitors of endomembrane trafficking and increased respiration in Arabidopsis thaliana cells at concentrations as low as 1 μM [71]”. For the same compound, the Cmax in series [4] was 72.3 µM. In addition, in the series on CHO–K1 cells [2] (CHO–K1, read-out: EC50 (increase of OCR)), the EC50 was 1600 nM. In addition, the “Concentration range with sustained enhanced OCR (OCR ≥ 150% basal)” value in the series with CHO–K1 cells [2] (CHO–K1, tested 0.32–200 μM) is at most 100 µM. The EC50 with CHO–K1 cells [2] (Cricetulus griseus, CHO-K1, 0.4 h, CHO–K1, read-out: EC50 (increase of OCR)) came to 1610 ± 410 nM.
On to `CC(=O)C1=C(O)C=C2Oc3c(C(C)=O)c(O)c(C)c(O)c3[C@@]2(C)C1=O` [UsAc, (+)-usnic acid], for which the Concentrations acutely toxic result with rat hepatocytes was “(+)-usnic acid (UsAc) • UsAc has not been tested in mouse models of metabolic disease. Concentrations of 2–5 μM UsAc are acutely toxic to rat hepatocytes [84, 85]. • UsAc is found in the unregulated weight-loss supplement LipoKinetix [86]”. In the series with CHO–K1 cells [1], the “Effect of oligomycin” value is given as “largely unaffected by the presence of oligomycin”. Moreover, in the series on CHO–K1 cells [2] (CHO–K1, 31.6 μM), the “OCR at 31.6 μM” value is reported as about 125 % basal. Also, the “Concentration inducing decline in OCR to sub-basal levels” value with CHO–K1 cells [2] (CHO–K1, after ∼40 min of treatment) is given as “over 31.6 μM”. The EC50 in the series on CHO–K1 cells [2] (Cricetulus griseus, 0.4 h, CHO–K1, read-out: EC50 (increase of OCR)) was 430 ± 120 nM.

The values are drawn from paper PMC12303080, “Diverse actions of 15 structurally unrelated mitochondrial uncouplers in cells and mice” (Molecular Metabolism, 2025).
